Measured values taken from patent US8901139B2, “Tricyclic indole derivatives and methods of use thereof” (Merck Sharp & Dohme Corp., priority 2008, dated 2014).

Tested on: HCV replicon cells (replicon RNA level)
Assay: Cell-Based HCV Replicon Assay
Details: Hepatitis C virus, 72 h; replicon RNA by real time PCR (Taqman), day 3; ΔCT=3.2 over baseline
Procedure: To measure cell-based anti-HCV activity of the a Compound of Formula (I), replicon cells were seeded at 5000 cells/well in 96-well collagen I-coated Nune plates in the presence of the Compound of Formula (I). Various concentrations of a Compound of Formula (I), typically in 10 serial 2-fold dilutions, were added to the assay mixture, with the starting concentration ranging from 250 μM to 1 μM. The final concentration of DMSO was 0.5%, fetal bovine serum was 5%, in the assay media. Cells were harvested on day 3 by the addition of 1× cell lysis buffer (Ambion cat #8721). The replicon RNA level was measured using real time PCR (Taqman assay). The amplicon was located in 5B. The PCR primers were: 5B.2F, ATGGACAGGCGCCCTGA (SEQ. ID. NO. 2); 5B.2R, […] (SEQ. ID. NO. 3);the probe sequence was FAM-labeled CACGCCATGCGCTGCGG (SEQ. ID. NO. 4). GAPDH RNA was used as endogenous control and was amplified in the same reaction as NS5B (multiplex PCR) using primers and VIC-labeled probe recommended by the manufacturer (PE Applied Biosystem). The real-time RT-PCR reactions were run on ABI PRISM 7900HT Sequence Detection System using the following program: 48° C. for 30 minutes, 95° C. for 10 minutes, 40 cycles of 95° C. for 15 sec, 60° C. for 1 minute. The ΔCT values (CT5B-CTGAPDH) were plotted against the concentration of test compound and fitted to the sigmoid dose-response model using XLfit4 (MDL). EC50 was defined as the concentration of inhibitor necessary to achieve ΔCT=1 over the projected baseline; EC90 the concentration necessary to achieve ΔCT=3.2 over the baseline. Alternatively, to quantitate the absolute amount of replicon RNA, a standard curve was established by including serially diluted T7 transcripts of replicon RNA in the Taqman assay. All Taqman reagents were from PE Applied Biosystems. Such an assay procedure was described in detail in e.g. Malcolm et al., Antimicrobial Agents and Chemotherapy 50: 1013-1020 (2006).
HCV replicon assay data was calculated for selected compounds of the present invention using this method.

SMILES: O=C(O)c1c(-c2ccc[nH]c2=O)c2c3c(c(F)cc2n1Cc1cc2cn[nH]c2cc1Cl)CCO3 [Compound 157]
- EC90: < 0.1 µM

SMILES: Cn1cnc2cc(Cl)c(Cn3c(C(=O)O)c(-c4ccc[nH]c4=O)c4c5occc5c(F)cc43)cc21 [Compound 162]
- EC90: < 0.1 µM

SMILES: O=C(O)c1c(-c2ccc[nH]c2=O)c2c3c(c(F)cc2n1Cc1cc2c(=O)[nH]c(=O)[nH]c2cc1F)CCO3 [Compound 165]
- EC90: < 0.1 µM

SMILES: CN(C)CCCOC(=O)c1c(-c2ccc[nH]c2=O)c2c3occc3c(F)cc2n1Cc1cc2c(=O)[nH]cnc2cc1F [Compound 189]
- EC90: < 0.1 µM

SMILES: N#Cc1ccc(F)c(Cn2c(C(=O)O)c(-c3ccc[nH]c3=O)c3c4occc4c(F)cc32)c1 [Compound 129]
- EC90: < 0.1 µM

SMILES: O=C(O)c1c(-c2ccc[nH]c2=O)c2c3occc3c(F)cc2n1Cc1cc2c(=O)[nH]cnc2cc1Cl [Compound 164]
- EC90: < 0.1 µM

SMILES: O=Cc1ccc(F)c(Cn2c(C(=O)O)c(-c3ccc[nH]c3=O)c3c4occc4c(F)cc32)c1 [Compound 131]
- EC90: < 0.1 µM

SMILES: Cc1cc2[nH]ncc2cc1Cn1c(C(=O)OCCN(C)C)c(-c2ccc[nH]c2=O)c2c3occc3c(F)cc21 [Compound 172]
- EC90: < 0.1 µM

SMILES: C=CCNCCOC(=O)c1c(-c2ccc[nH]c2=O)c2c3occc3c(F)cc2n1Cc1cc2cn[nH]c2cc1CC=C [Compound 188]
- EC90: < 0.1 µM

SMILES: CN(C)CCOC(=O)c1c(-c2ccc[nH]c2=O)c2c3c(c(F)cc2n1Cc1cc2cn[nH]c2cc1F)CCO3 [Compound 174]
- EC90: < 0.1 µM

SMILES: O=C(O)c1c(-c2ccc[nH]c2=O)c2c3occc3c(F)cc2n1Cc1cc2cn[nH]c2cc1Cl [Compound 150]
- EC90: < 0.1 µM

SMILES: CN(C)CCOC(=O)c1c(-c2ccc[nH]c2=O)c2c3occc3c(F)cc2n1Cc1cc(N)nc2ccccc12 [Compound 177]
- EC90: < 0.1 µM

SMILES: Nc1ncnc2cc(F)c(Cn3c(C(=O)O)c(-c4ccc[nH]c4=O)c4c5occc5c(F)cc43)cc12 [Compound 161]
- EC90: < 0.1 µM

SMILES: Cc1cc2[nH]ncc2cc1Cn1c(C(=O)O)c(-c2ccc[nH]c2=O)c2c3occc3c(F)cc21 [Compound 136]
- EC90: < 0.1 µM

SMILES: CN(C)CCOC(=O)c1c(-c2ccc[nH]c2=O)c2c3occc3c(F)cc2n1Cc1cc2c(N)ncnc2cc1F [Compound 185]
- EC90: < 0.1 µM

SMILES: O=C(O)c1c(-c2ccc[nH]c2=O)c2c3occc3c(F)cc2n1Cc1cc2cc[nH]c2cc1Br [Compound 170]
- EC90: < 0.1 µM
